Measured values reported in patent US6372297B1, “Wood preservative oxathiazines” (Uniroyal Chemical Company, Inc., priority 1993, dated 2002).

Columns and labels:
[1] = tested on: blue-stain fungi and molds; assay: Activity against blue-stain fungi and molds on a stick test on vermiculite (paint film); parameters: key to Surface score of wooden sticks treated with paint formulation, C. cladosporioides / Surface score of wooden sticks treated with paint formulation, P. purpurogenum / Surface score of wooden sticks treated with paint formulation, P. violacea / Surface score of wooden sticks treated with paint formulation, R rubra (y) / Surface score of wooden sticks treated with paint formulation, S. chartarum / Surface score of wooden sticks treated with paint formulation, A. versicolor / Surface score of wooden sticks treated with paint formulation, A. pullulans: 0: No growth; Trace of growth of up to 1% coverage of the test inoculated area; 2: Growth covering between 1 and 10% of the inoculated test area; Growth covering between 10 and 30% of the inoculated test area; 4: Growth covering between 30 and 70% of the inoculated test area; 5: Growth covering more than 70t of the inoculated test area; conditions: 12 weeks on vermiculite; for Surface score of wooden sticks treated with paint formulation, R rubra (y): R rubra (yeast)
Method: Beech sticks (73×18×2 mm) Fagus sylvatica were painted, allowed to dry, and sterilized by γ-radiation (1.2 mRad). […] The coated sticks prepared above were then dipped in a spore suspension of pure culture of each fungus. Seven sticks each were placed in autoclaved Petri dishes (200 mm in diameter, 30 mm in height) containing 300 ml of vermiculite and 120 ml of water, and incubated for 12 weeks. The surfaces of the sticks were then examined for the growth of fungus and were evaluated according to the following scoring system: 0: No growth 1: […] 2: […] 3: […] 4. […] 5. Growth covering more than 70t of the inoculated test area.

[2] = tested on: mixed spore suspension: Aureobasidium pullulans, Aspergillus amstelodami, Ceratocystis pilifera, Cladosporium sp., Penicillium sp., Sclerophomas entoxylina …; assay: Control of molds and sapstain fungi in mini-board test; parameters: key to Surface score of treated mini-boards, 3 week incubation, 1500 ppm / Surface score of treated mini-boards, 3 week incubation, 2500 ppm: 0: Free of fungal growth; 1: Traces of fungal growth; 2: Little fungal growth; 3: Moderate fungal growth; 4: Vigorous to maximum growth (all surfaces covered with fungal growth)
Description: Representative compounds of this invention to be tested, were suspended in an aqueous solution containing 7.5% GENAPOL X 080™ (Hoechst-Celanese Corporation), and 20% propylene glycol monomethyl ether, to prepare the test solutions. […]
Deep frozen boards (300×50×10 mm) of freshly felled sapwood of Pinus sylvestrus (mini-boards) were thawed at room temperature. One half of each mini-board was immersed in a test solution for 20 seconds. The mini-boards were then sprayed with mixed spore suspension containing the following fungi:
Sclerophomas entoxylina, and
and stored in incubation boxes at 25° C. and at 100% relative humidity, for three weeks. For each compound tested, each concentration of test solution was applied to five different mini-boards.
The efficacy of the test compounds was determined by comparing the fungal growth on both the treated and untreated parts of the mini-boards.
The degree of infection was scored according to the following scale:
1=Traces of fungal growth
4=Vigorous to maximum growth (all surfaces covered with fungal growth)

[3] = tested on: mixed spore suspension of blue-stain fungus and molds; assay: Activity against blue-stain fungi and molds in a mold cabinet test (BS3900: Part G6); parameters: key: 0: No growth; Trace of growth of up to 1% coverage of the test inoculated area; 2: Growth covering between 1 and 10% of the inoculated test area; Growth covering between 10 and 30% of the inoculated test area; 4: Growth covering between 30 and 70% of the inoculated test area; 5: Growth covering more than 70t of the inoculated test area
Method: Using the methods described in BS3900: Part G6: 1989, British Standard Methods of test for paints, “Assessment of resistance to fungal growth”, representative compounds of this invention were tested for activity against blue-stain fungus and molds in a mold cabinet test. In brief, sticks of Scots pine (Pinus sylvestris) measuring 75×100×10 mm, were painted, allowed to dry, and sterilized by […] (1.2 mRad). […] The sticks were then with each solution. The inoculation consisted of dipping the sticks in a mixed spore suspension, then placing them in a mold chamber and incubating them for 12 weeks. The surfaces were evaluated according the following score system: 0: No growth 1: […] 2: […] 3: […] 4. […] 5. Growth covering more than 70% of the inoculated test area.

| Structure (SMILES) | Surface score of wooden sticks treated with paint formulation, A. pullulans ([1]; 0.15% a.i. in paint) | Surface score of wooden sticks treated with paint formulation, A. pullulans ([1]; 0.3% a.i. in paint) | Surface score of wooden sticks treated with paint formulation, A. versicolor ([1]; 0.15% a.i. in paint) | Surface score of wooden sticks treated with paint formulation, A. versicolor ([1]; 0.3% a.i. in paint) | Surface score of wooden sticks treated with paint formulation, C. cladosporioides ([1]; 0.15% a.i. in paint) | Surface score of wooden sticks treated with paint formulation, C. cladosporioides ([1]; 0.3% a.i. in paint) | Surface score of wooden sticks treated with paint formulation, P. purpurogenum ([1]; 0.15% a.i. in paint) | Surface score of wooden sticks treated with paint formulation, P. purpurogenum ([1]; 0.3% a.i. in paint) | Surface score of wooden sticks treated with paint formulation, P. violacea ([1]; 0.15% a.i. in paint) | Surface score of wooden sticks treated with paint formulation, P. violacea ([1]; 0.3% a.i. in paint) | Surface score of wooden sticks treated with paint formulation, R rubra (y) ([1]; 0.15% a.i. in paint) | Surface score of wooden sticks treated with paint formulation, R rubra (y) ([1]; 0.3% a.i. in paint) | Surface score of wooden sticks treated with paint formulation, S. chartarum ([1]; 0.15% a.i. in paint) | Surface score of wooden sticks treated with paint formulation, S. chartarum ([1]; 0.3% a.i. in paint) | Surface score of wooden sticks treated with paint formulation, U. atrum ([1]; 0.15% a.i. in paint) | Surface score of wooden sticks treated with paint formulation, U. atrum ([1]; 0.3% a.i. in paint) | Surface score of treated mini-boards, 3 week incubation, 1500 ppm [2] | Surface score of treated mini-boards, 6 week incubation, 1500 ppm [2] | Surface score of treated mini-boards, 3 week incubation, 2500 ppm [2] | Surface score of treated mini-boards, 6 week incubation, 2500 ppm [2] | other results |
| --- | --- | --- | --- | --- | --- | --- | --- | --- | --- | --- | --- | --- | --- | --- | --- | --- | --- | --- | --- | --- | --- |
| [O-][S+]1CCON=C1c1ccc(Br)s1 (stereo not drawn) [Compound 36] | 0 | 0 | 0 | 0 | 0 | 0 | 1 (Trace of growth of up to 1% coverage of the test inoculated area) | 1 (Trace of growth of up to 1% coverage of the test inoculated area) | 3 (Growth covering between 10 and 30% of the inoculated test area) | 1 (Trace of growth of up to 1% coverage of the test inoculated area) | 0 | 0 | 0 | 0 | 3 (Growth covering between 10 and 30% of the inoculated test area) | 1 (Trace of growth of up to 1% coverage of the test inoculated area) | 0.2 | 2.6 | 0 | 1.4 | Surface score in a paint formulation in a mold cabinet test, 6 weeks ([3]; 0.15% in water-based paint): 2.5; Surface score in a paint formulation in a mold cabinet test, 12 weeks ([3]; 0.15% in water-based paint): 4.5; Surface score in a paint formulation in a mold cabinet test, 6 weeks ([3]; 0.3% in water-based paint): 2.5; Surface score in a paint formulation in a mold cabinet test, 12 weeks ([3]; 0.3% in water-based paint): 4.0 |
| [O-][S+]1CCON=C1c1cc(Br)cs1 (stereo not drawn) [Compound 41] | 0 | 0 | 0 | 0 | 0 | 0 | 2 (Growth covering between 1 and 10% of the inoculated test area) | 1 (Trace of growth of up to 1% coverage of the test inoculated area) | 4 (Growth covering between 30 and 70% of the inoculated test area) | 3 (Growth covering between 10 and 30% of the inoculated test area) | 3 (Growth covering between 10 and 30% of the inoculated test area) | 0 | 4 (Growth covering between 30 and 70% of the inoculated test area) | 0 | 3 (Growth covering between 10 and 30% of the inoculated test area) | 1 (Trace of growth of up to 1% coverage of the test inoculated area) | 0.6 | 2.4 | 0.2 | 1.6 | Surface score in a paint formulation in a mold cabinet test, 6 weeks ([3]; 0.15% in water-based paint): 0; Surface score in a paint formulation in a mold cabinet test, 12 weeks ([3]; 0.15% in water-based paint): 2.0; Surface score in a paint formulation in a mold cabinet test, 6 weeks ([3]; 0.3% in water-based paint): 0.5; Surface score in a paint formulation in a mold cabinet test, 12 weeks ([3]; 0.3% in water-based paint): 3.0 |
| O=S1(=O)CCON=C1c1cc(Br)cs1 [Compound 42] | 2 (Growth covering between 1 and 10% of the inoculated test area) | 1 (Trace of growth of up to 1% coverage of the test inoculated area) | 2 (Growth covering between 1 and 10% of the inoculated test area) | 1 (Trace of growth of up to 1% coverage of the test inoculated area) | 2 (Growth covering between 1 and 10% of the inoculated test area) | 1 (Trace of growth of up to 1% coverage of the test inoculated area) | 4 (Growth covering between 30 and 70% of the inoculated test area) | 2 (Growth covering between 1 and 10% of the inoculated test area) | 4 (Growth covering between 30 and 70% of the inoculated test area) | 3 (Growth covering between 10 and 30% of the inoculated test area) | 3 (Growth covering between 10 and 30% of the inoculated test area) | 1 (Trace of growth of up to 1% coverage of the test inoculated area) | 3 (Growth covering between 10 and 30% of the inoculated test area) | 2 (Growth covering between 1 and 10% of the inoculated test area) | 5 (Growth covering more than 70t of the inoculated test area) | 3 (Growth covering between 10 and 30% of the inoculated test area) | 0 | 2.0 | 0 | 2.6 | Surface score in a paint formulation in a mold cabinet test, 6 weeks ([3]; 0.15% in water-based paint): 1.5; Surface score in a paint formulation in a mold cabinet test, 12 weeks ([3]; 0.15% in water-based paint): 3.5; Surface score in a paint formulation in a mold cabinet test, 6 weeks ([3]; 0.3% in water-based paint): 0.5; Surface score in a paint formulation in a mold cabinet test, 12 weeks ([3]; 0.3% in water-based paint): 3.0 |
